Source: patent US20140128352A1, “COMPOUNDS AND METHODS FOR MODULATING MITOCHONDRIAL METABOLISM AND REACTIVE OXYGEN SPECIES PRODUCTION” (Buck Institute for Research on Aging, priority 2012, published 2014)
Entries after “also recorded” stand apart in the source; their conditions may differ. Read-outs that look alike come from different tables or passages of the source.

Experiments:
[1] = test system: ubiquinone binding site of complex I (IQ); assay: High-throughput screen: ROS production from ubiquinone binding site of complex I (IQ), isolated skeletal muscle mitochondria; format: biochemical, rat; conditions: for IQ: percent change in ROS from DMSO controls
[2] = test system: mitochondrial membrane potential (ΔΨm); assay: Membrane potential (ΔΨm) counterscreen with TMRM; conditions: malate, nigericin
[3] = biological target: T1, outer ubiquinone binding site of complex III (IIIQO) (Rattus norvegicus, UniProt P00159+P20788); assay: High-throughput screen: ROS production from outer ubiquinone binding site of complex III (IIIQO); format: biochemical
T1 construct: freshly isolated muscle mitochondria were assayed; from tissue; host or cells: rat skeletal muscle mitochondria (Wistar, Harlan Laboratories)
Method: (§1) Skeletal muscle mitochondria were isolated from 5-8 week old female Wistar rats (Harlan Laboratories). Minced muscle was homogenized in buffer containing bacterial protease Type VIII prior to differential centrifugation to separate mitochondria from other tissue components. Unless otherwise stated, freshly isolated muscle mitochondria were assayed in buffer containing 120 mM KCl, 5 mM HEPES, 1 mM EGTA, 0.3% (w/v) bovine serum albumin. Where indicated, CaCl2 was added to yield a final free concentration of 250 nM calcium at pH 7.0 at 37° C.
Compounds (10 mM in DMSO) were randomly selected from a library of 24,000 compounds obtained from ChemBridge and curated by the lab of Robert Hughes at the Buck Institute. Master screening plates were prepared using a Biomek FX liquid handling workstation (Beckman) to transfer 1 μL of each compound into individual wells on 96-well storage plates (80 compounds per plate). Master plates were sealed with foil and stored at −80° C. Just prior to use, plates were brought to room temperature and diluted 300-fold with standard buffer (13.3X=33.3 μM). To monitor the performance of each assay throughout screening and to provide intra-plate normalization reference points, DMSO negative controls and known mitochondrial inhibitor positive controls were included on each Master compound plate.
(§2) Total amounts of superoxide and H2O2 production were determined fluorometrically as H2O2, without distinguishing between them, in the presence of exogenous superoxide dismutase (25 units/mL final), horseradish peroxidase (1 unit/mL final), and Amplex UltraRed (25 μM final) as described (Affourtit, C. et al. (2012) Measurement of proton leak and electron leak in isolated mitochondria. Methods Mol. Biol. 810: 165-82). Just prior to use, a bulk 3.3X solution was made in standard buffer and distributed into a 2 mL deep well 96-well transfer plate.
To assess the effects of a compound on ROS production from the outer ubiquinone binding site of complex III (IIIQO), Start Solution containing 5 mM succinate, 4 μM rotenone and 2.5 μM antimycin A was distributed into standard 96-well transfer plates. A Biomek FX workstation was programmed to dispense solutions into black 96-well assay plates. Solutions were dispensed to all assay plates in the following order: ROS Detection solution described in Example 3, Mitochondria solution described in Example 1 to a final concentration of 0.1 mg/ml, and Compound dilutions described in Example 2. Duplicate assay plates were made and each was initiated by the addition of 3.3X Start solution containing 5 mM succinate, 4 μM rotenone and 2.5 μM antimycin A. Plates were incubated in the dark at room temperature for 30-40 minutes before acquiring endpoint fluorescence using a Victor 3V plate reader (Perkin Elmer) equipped with 550/590 nm excitation/emission filters.
(§3) The fluorescence values in each well were scaled as the percent change from the intra-plate DMSO controls with the appropriate inhibitor positive controls defined as −100%. Following initial scaling, intra-plate normalized values were subjected to Tukey's two-way median polish to remove row and column dependent positional effects (Malo et al., 2006).

[4] = biological target: T2, flavin binding site of complex I (IF) (Rattus norvegicus, UniProt Q5XIH3); assay: High-throughput screen: ROS production from flavin binding site of complex I (IF); format: biochemical
T2 construct: freshly isolated muscle mitochondria were assayed; from tissue; host or cells: rat skeletal muscle mitochondria (Wistar, Harlan Laboratories)

[5] = biological target: T3, glycerol-3-phosphate dehydrogenase (GPDH) (Rattus norvegicus, UniProt P35571); assay: High-throughput screen: ROS production from glycerol-3-phosphate dehydrogenase (GPDH); format: biochemical; parameters: inhibition: dose or concentration left out as unconfirmed; conditions: for inhibition / GPDH: percent change in ROS from DMSO controls; for inhibition at 2.5 µM: Table 6, 25 mM glycerol phosphate, rotenone, antimycin A, malonate, myxothiazol, compounds 2.5 μM, scaled to IQ positive controls, read-out: % Reduction in ROS Production (GPDH)
T3 construct: The activity of GPDH in intact mitochondria (0.3 mg/mL) was measured; from tissue; host or cells: rat skeletal muscle mitochondria (Wistar, Harlan Laboratories)
T3 sequence (P35571 43-727): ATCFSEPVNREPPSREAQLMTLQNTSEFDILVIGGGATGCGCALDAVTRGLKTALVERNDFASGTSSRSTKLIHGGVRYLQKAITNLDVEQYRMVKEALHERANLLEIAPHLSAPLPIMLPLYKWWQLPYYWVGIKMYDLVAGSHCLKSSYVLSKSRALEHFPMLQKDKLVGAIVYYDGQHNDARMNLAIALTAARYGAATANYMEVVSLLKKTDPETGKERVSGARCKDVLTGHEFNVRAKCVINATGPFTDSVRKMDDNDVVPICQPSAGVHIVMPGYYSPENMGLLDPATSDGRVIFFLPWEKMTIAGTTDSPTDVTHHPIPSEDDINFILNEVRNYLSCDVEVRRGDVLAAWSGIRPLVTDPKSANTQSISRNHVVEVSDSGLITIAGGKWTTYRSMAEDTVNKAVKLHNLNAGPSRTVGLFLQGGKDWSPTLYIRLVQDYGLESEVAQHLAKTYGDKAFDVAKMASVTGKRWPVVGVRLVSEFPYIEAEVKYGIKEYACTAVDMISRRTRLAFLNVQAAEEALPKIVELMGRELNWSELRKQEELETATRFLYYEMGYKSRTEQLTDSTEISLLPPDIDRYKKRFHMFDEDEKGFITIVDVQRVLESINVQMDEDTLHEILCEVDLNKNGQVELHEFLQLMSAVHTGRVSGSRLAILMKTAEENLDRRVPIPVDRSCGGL

[6] = biological target: T4, succinate dehydrogenase/complex II (SDH) (Rattus norvegicus, UniProt P21913+Q641Z9+Q6PCT8+Q920L2); assay: High-throughput screen: ROS production from succinate dehydrogenase/complex II (SDH); format: biochemical; conditions: percent change in ROS from DMSO controls
T4 construct: freshly isolated muscle mitochondria were assayed; from tissue; host or cells: rat skeletal muscle mitochondria (Wistar, Harlan Laboratories)
Method: as §1
Just prior to use, plates were brought to room temperature and diluted 300-fold with standard buffer (13.3X=33.3 μM). To monitor the performance of each assay throughout screening and to provide intra-plate normalization reference points, DMSO negative controls and known mitochondrial inhibitor positive controls were included on each Master compound plate.
as §2
To assess the effects of a compound on ROS production from succinate dehydrogenase/complex II (SDH), Start Solution containing 15 μM palmitoyl carnitine, 2.5 μM antimycin A and 2 μM myxothiazol was distributed into standard 96-well transfer plates. A Biomek FX workstation was programmed to dispense solutions into black 96-well assay plates. Solutions were dispensed to all assay plates in the following order: ROS Detection solution described in Example 3, Mitochondria solution described in Example 1 to a final concentration of 0.3 mg/ml, and Compound dilutions described in Example 2. Duplicate assay plates were made and each was initiated by the addition of 3.3X Start solution containing 15 μM palmitoyl carnitine, 2.5 μM antimycin A and 2 μM myxothiazol. Plates were incubated in the dark at room temperature for 30-40 minutes before acquiring endpoint fluorescence using a Victor 3V plate reader (Perkin Elmer) equipped with 550/590 nm excitation/emission filters.
as §3

site IF = biological target: T5, site IF (Rattus norvegicus, UniProt Q5XIH3); assay: Retest of IF ROS production (expanded microplate panel); format: biochemical
T5 construct: freshly isolated muscle mitochondria were assayed; from tissue; host or cells: rat skeletal muscle mitochondria (Wistar, Harlan Laboratories)
Method: Compounds identified as site-selective hits as well as structural analogs were re-sourced from ChemBridge and dissolved in DMSO as 80 mM stocks. Master Titration Plates were prepared manually by serially diluting 80 mM compound stocks between 0.08 and 80 mM on 96-well microplates. Four compounds were titrated in duplicate on each plate. Additional DMSO controls were interspersed across these plates to serve as local normalization controls during analysis since two-way median polishing was not appropriate. Just prior to use, compounds were diluted 100-fold with standard buffer (10X). The same known inhibitor positive controls were included on each plate as during high-throughput screening. The five core ROS assays and single ΔΨm assay were carried out as in the initial high-throughput screen. In addition, several assays were included to help validate the specificity of the compounds for a given site of production. […] The use of different substrates was designed to reveal compounds that disrupt mitochondrial function in a substrate specific manner. […] Most frequently, these changes involved the use of different substrates to supply electrons from an alternative entry point in the chain. If a site of ROS production is being targeted selectively by a compound, then in many cases the supply of electrons should not influence the effectiveness of this compound at suppressing ROS production. […] The fluorescence values in each well were scaled in relation to the intra-plate DMSO and known inhibitor controls as in the high-throughput screen except that median values for local interspersed DMSO wells (3-6 wells) were used rather than just the 8 DMSO wells in columns 1 and 12. This normalization was applied in place of the two-way median polish used during high-throughput screening to minimize row and column effects. […] At this stage, strong candidates were not necessarily excluded from further testing if subtle off-target effects were observed (e.g. loss of specificity or signs of general inhibition at the highest concentrations). Rather, these candidates were often pursued for more detailed mechanistic studies with the expectation that subsequent structure activity analysis would provide insight into which structurally related compounds would provide the optimal specificity for a given site of production.

[7] = Table 4, 5 mM succinate, 4 μM rotenone, 2.5 μM antimycin A, compounds 2.5 μM, percent change from DMSO, read-out: % Reduction in ROS production (IIIQO)
[8] = Table 7, percent change in ROS from DMSO controls, read-out: IIIQO
[9] = Table 8, percent change in ROS from DMSO controls
[10] = Table 9, percent change in ROS from DMSO controls, read-out: IIIQo
[11] = Table 7, percent change in ROS from DMSO controls, read-out: IF
[12] = Table 9, percent change in ROS from DMSO controls
[13] = Table 7, percent change in ROS from DMSO controls
[14] = Table 3, 5 mM glutamate, 5 mM malate, 4 μM rotenone, compounds 2.5 μM, percent change from DMSO, positive control −100%, read-out: % Reduction in ROS production (IF)

T2 sequence (Q5XIH3 21-464 limits assumed, one chain of several): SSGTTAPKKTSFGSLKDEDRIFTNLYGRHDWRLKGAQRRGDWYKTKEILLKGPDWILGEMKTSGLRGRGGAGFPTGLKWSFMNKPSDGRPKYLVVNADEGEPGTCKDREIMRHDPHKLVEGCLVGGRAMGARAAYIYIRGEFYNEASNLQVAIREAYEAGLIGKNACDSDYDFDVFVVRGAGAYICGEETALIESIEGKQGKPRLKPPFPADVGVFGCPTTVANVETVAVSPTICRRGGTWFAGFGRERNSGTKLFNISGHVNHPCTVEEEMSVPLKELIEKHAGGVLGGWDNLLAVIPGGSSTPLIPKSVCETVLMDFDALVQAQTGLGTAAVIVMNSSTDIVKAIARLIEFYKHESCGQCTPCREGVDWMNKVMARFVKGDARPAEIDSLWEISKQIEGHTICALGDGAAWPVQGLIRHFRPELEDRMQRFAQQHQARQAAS
T5 sequence (Q5XIH3 21-464 limits assumed): as the sequence (Q5XIH3 21-464 limits assumed, one chain of several) above
T4 sequence (Q920L2 35-656): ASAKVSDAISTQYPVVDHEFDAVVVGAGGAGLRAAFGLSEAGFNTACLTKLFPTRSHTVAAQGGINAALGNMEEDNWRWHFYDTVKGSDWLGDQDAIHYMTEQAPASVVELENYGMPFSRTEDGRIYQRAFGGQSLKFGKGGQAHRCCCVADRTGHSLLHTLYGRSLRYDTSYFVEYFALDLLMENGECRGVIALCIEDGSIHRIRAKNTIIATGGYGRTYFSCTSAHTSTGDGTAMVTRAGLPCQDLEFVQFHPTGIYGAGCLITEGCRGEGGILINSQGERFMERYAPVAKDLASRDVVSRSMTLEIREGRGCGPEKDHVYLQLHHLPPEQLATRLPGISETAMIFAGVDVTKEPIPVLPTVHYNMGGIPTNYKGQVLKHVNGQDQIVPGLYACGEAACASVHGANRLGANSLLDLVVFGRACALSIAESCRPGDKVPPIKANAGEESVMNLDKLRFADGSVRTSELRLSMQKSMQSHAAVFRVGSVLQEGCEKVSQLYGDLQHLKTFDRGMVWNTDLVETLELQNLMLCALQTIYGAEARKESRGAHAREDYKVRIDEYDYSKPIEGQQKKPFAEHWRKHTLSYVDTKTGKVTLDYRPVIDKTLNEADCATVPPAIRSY
T4 sequence (P21913 31-282): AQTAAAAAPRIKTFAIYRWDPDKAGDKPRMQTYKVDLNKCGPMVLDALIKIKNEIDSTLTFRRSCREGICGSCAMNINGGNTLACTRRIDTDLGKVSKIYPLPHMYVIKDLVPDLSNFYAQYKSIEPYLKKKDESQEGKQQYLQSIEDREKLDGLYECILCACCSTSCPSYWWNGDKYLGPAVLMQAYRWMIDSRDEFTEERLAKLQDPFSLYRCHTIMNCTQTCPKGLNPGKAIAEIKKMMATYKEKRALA
T4 sequence (Q641Z9 30-169 limits assumed): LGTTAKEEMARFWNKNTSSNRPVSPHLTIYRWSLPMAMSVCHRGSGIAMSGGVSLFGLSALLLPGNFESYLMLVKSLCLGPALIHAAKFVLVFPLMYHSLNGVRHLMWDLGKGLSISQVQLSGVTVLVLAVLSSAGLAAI
T4 sequence (Q6PCT8 57-159): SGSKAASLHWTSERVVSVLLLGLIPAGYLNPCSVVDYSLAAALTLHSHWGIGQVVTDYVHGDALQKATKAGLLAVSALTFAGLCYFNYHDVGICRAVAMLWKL

Row | inhibition at 2.5 µM [3, 8] [%] | IIIQO [3, 9] | inhibition at 2.5 µM [3, 10] [%] | inhibition ([5]; Table 7) [%] | GPDH ([5]; Table 8) | GPDH ([5]; Table 9) | inhibition at 2.5 µM ([6]; Table 7) [%] | SDH ([6]; Table 8) | SDH ([6]; Table 9) | SMILES | IQ ([1]; Table 7) | IQ ([1]; Table 8) | IQ ([1]; Table 9) | ΔΨm ([2]; Table 8, glutamate) | ΔΨm ([2]; Table 9, glutamate) | inhibition at 2.5 µM [4, 11] [%] | IF [4, 9] | IF [4, 12] | effect on IF ROS and selectivity for site IF (site IF) | inhibition at 2.5 µM [4, 14] [%] | other results
1 | 49.4 | −49.4 | 49.4 | 4 | −4.0 | −4.0 | -3.9 | 3.9 | 3.9 | COc1ccc(Cl)cc1N(Cc1ccccc1)Cc1ccccc1 [Compound 34] | 4.0 | 4.0 | 4.0 | 3.4 | 3.4 | -5.6 | 5.6 | 5.6 | – | – | inhibition at 2.5 µM [3, 7]: 49.4%
2 | 2.4 | – | – | 3.8 | – | – | 4.5 | – | – | O=C(O)CCC(=O)Nc1ccc(-c2nc3cc4ccccc4cc3[nH]2)cc1 [Compound 61] | −17.1 | – | – | – | – | 4.8 | – | – | – | – | inhibition at 2.5 µM [5]: 48.3%
3 | 1.4 | −1.4 | 1.4 | -0.5 | 0.5 | 0.5 | 6 | −6.0 | −6.0 | COc1cc(CN(CCN(C)C)Cc2ccccc2)cc(OC)c1 [Compound 31] | −1.4 | −1.4 | −1.4 | 0.3 | 0.3 | 7.6 | −7.6 | −7.6 | improved selectivity toward the IF site in combination with a lowered effect on ΔΨm | 7.6 | –
4 | -1.2 | 1.2 | -1.2 | 1 | −1.0 | −1.0 | – | – | – | O=C(O)C1CCCCC1C(=O)NC1CCCCC1 (stereo not shown) [Compound 19] | 0.0 | 0.0 | 0.0 | −1.4 | −1.4 | 25.6 | −25.6 | −25.6 | selectively lowers ROS production from site IF | 25.6 | inhibition at 2.5 µM (site IF; 2.5 μM): 24%
5 | 0 | 0.0 | 0 | 14.1 | −14.1 | −14.1 | -1.3 | 1.3 | 1.3 | O=C(O)CSc1cccc(C(=O)Nc2ccc(Br)cc2)c1 [Compound 47] | −0.1 | −0.1 | −0.1 | 0.0 | 0.0 | 0.5 | −0.5 | −0.5 | – | – | inhibition at 2.5 µM [5]: 14.1%
6 | 32.1 | −32.1 | 32.1 | 0.6 | −0.6 | −0.6 | -1.2 | 1.2 | 1.2 | CC1=CC(C)(C)N(Cc2ccc([N+](=O)[O-])cc2)c2ccccc21 [Compound 37] | 0.3 | 0.3 | 0.3 | 1.5 | 1.5 | -0.6 | 0.6 | 0.6 | – | – | inhibition at 2.5 µM [3, 7]: 32.1%
7 | -2.5 | 2.5 | -2.5 | -0.2 | 0.2 | 0.2 | 6.8 | −6.8 | −6.8 | Cc1ccc(C)c(CN(CCCN(C)C)CCCN(C)C)c1 [Compound 32] | −0.6 | −0.6 | −0.6 | −0.2 | −0.2 | 28.8 | −28.8 | −28.8 | selectively lowers ROS production from site IF; also recorded: further improved selectivity for IF without compromising ΔΨm | 28.8 | –

Row | SMILES | inhibition at 2.5 µM [3, 8] [%] | IIIQO [3, 9] | inhibition at 2.5 µM [3, 10] [%] | inhibition ([5]; Table 7) [%] | GPDH ([5]; Table 8) | GPDH ([5]; Table 9) | inhibition at 2.5 µM ([6]; Table 7) [%] | SDH ([6]; Table 8) | SDH ([6]; Table 9) | IQ ([1]; Table 7) | IQ ([1]; Table 8) | IQ ([1]; Table 9) | ΔΨm ([2]; Table 8, glutamate) | ΔΨm ([2]; Table 9, glutamate) | inhibition at 2.5 µM [4, 11] [%] | IF [4, 9] | IF [4, 12] | effect on IF ROS and selectivity for site IF (site IF) | inhibition at 2.5 µM [4, 14] [%] | other results
8 | O=[N+]([O-])c1ccc(Oc2ccc(S(=O)(=O)NC3CCCCC3)cc2)cc1 [Compound 4] | – | −0.3 | – | – | 2.8 | 2.8 | – | 0.8 | 0.8 | −47.9 | −47.9 | −47.9 | −0.9 | −0.9 | – | 3.1 | 3.1 | – | – | % Reduction in ROS production (IQ) ([1]; Table 2, 5 mM succinate, compounds 2.5 μM, percent change from DMSO, positive control −100%): −47.9%; IIIQO [3, 13]: −0.3; IIIQO [3, 12]: −0.3; IF [4, 13]: 3.1; GPDH ([5]; Table 7): 2.8; SDH ([6]; Table 7): 0.8
